“And” between values parts separate entries of the source, which are not always exact repeats. Equal entries are not always repeated.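 Compound exposure: 48 hours, 5 concentrations, 96-well plates. Abbreviation: GI50, concentration required for 50% inhibition of growth. At the TGI there is no net growth.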
Tests used:
Assay in all cases: inhibition of tumour cell growth, NCI panel, 48 h
DU-145 prostate = tested on: DU-145 prostate
NCI-H460 lung = tested on: NCI-H460 lung
EKVX NSCLC = tested on: EKVX NSCLC
MDA-MB-435 = tested on: MDA-MB-435
SW-620 colon = tested on: SW-620 colon
SK-MEL-2 melanoma = tested on: SK-MEL-2 melanoma
SK-MEL-5 melanoma = tested on: SK-MEL-5 melanoma
HCT-15 colon = tested on: HCT-15 colon
SF-539 CNS = tested on: SF-539 CNS
COLO 205 colon = tested on: COLO 205 colon

Structure (SMILES) | GI50 (DU-145 prostate) | TGI (DU-145 prostate) | GI50 (NCI-H460 lung) | TGI (NCI-H460 lung) | GI50 (EKVX NSCLC) [nM] | TGI (EKVX NSCLC) | GI50 (MDA-MB-435) | TGI (MDA-MB-435) | GI50 (SW-620 colon) | TGI (SW-620 colon) | GI50 (SK-MEL-2 melanoma) | TGI (SK-MEL-2 melanoma) | GI50 (SK-MEL-5 melanoma) | TGI (SK-MEL-5 melanoma) | GI50 (HCT-15 colon) | TGI (HCT-15 colon) | GI50 (SF-539 CNS) | TGI (SF-539 CNS) | GI50 (COLO 205 colon) | TGI (COLO 205 colon)
Oc1ccc2oc3ncc(Cl)c(-c4ccccc4)c3c2c1 | > 100000 nM | > 100000 nM | > 100000 nM | > 100000 nM | > 100000 | > 100000 nM | > 100000 nM | > 100000 nM | > 100000 nM | > 100000 nM | > 100000 nM | > 100000 nM | > 100000 nM | > 100000 nM | > 100000 nM | > 100000 nM | > 100000 nM | > 100000 nM | > 100000 nM | > 100000 nM
O=C(c1ccccc1Nc1ccnc(C(F)(F)F)c1)N1CCN(c2cccc(Cl)c2)CC1 | 28100 nM | > 100000 nM | 17600 nM | 44600 nM | 15400 | > 87500 nM | 16100 nM | 66700 nM | 25000 nM | > 100000 nM | 21100 nM | 50300 nM | 8290 nM | 21800 nM | 24100 nM | > 100000 nM | 17800 nM | 41100 nM | 15100 nM | 30100 nM
CC1(C)CCC[C@]23C(=O)O[C@](O)(C(=O)C4=C[C@@](C)(/C=C/CCCc5ccc6ccc7cccc8ccc5c6c78)CC[C@@]42O)[C@@H]13 | 179 nM | 326 nM | 180 nM | 374 nM | 216 | 485 nM | 173 nM | 323 nM | 179 nM | 379 nM | 217 nM | 471 nM | 185 nM | 327 nM | 148 nM | 425 nM | 170 nM | 322 nM | 183 nM | 383 nM
S=c1nc[nH]c2c1ncn2Cc1ccco1 |  | > 100000 nM |  | > 100000 nM |  | > 100000 nM |  | > 100000 nM |  | > 100000 nM |  | > 100000 nM |  | > 100000 nM |  | > 100000 nM |  | > 100000 nM |  | > 100000 nM
CN(C)c1ccc(/C=C2\C[C@H]3[C@@H]4CC=C5C[C@@H](N6CCCC6)CC[C@]5(C)[C@H]4CC[C@]3(C)[C@H]2O)cc1 | 13700 nM | 13700 nM and > 100000 nM | 2370 nM | 5080 nM and 5520 nM | 3670 | 7720 nM and 26400 nM |  | 5370 nM |  | 3690 nM | 2000 nM | 2350 nM and 3890 nM | 3440 nM | 1620 nM and 12700 nM | 3430 nM | 5510 nM and 22300 nM |  | 12800 nM |  | 4120 nM
COc1ccc(N2CCN(C(=O)c3ccccc3Nc3ccnc(C(F)(F)F)c3)CC2)cc1 | > 100000 nM | > 100000 nM | 50700 nM | > 100000 nM | 39300 | > 100000 nM | 38000 nM | > 100000 nM | > 100000 nM | > 100000 nM | > 100000 nM | > 100000 nM | 10300 nM | 29400 nM | > 100000 nM | > 100000 nM | > 100000 nM | > 100000 nM | 63000 nM | > 100000 nM
CC(C)C[C@H](NC(=O)[C@H](CCc1ccccc1)NC(=O)CN1CCOCC1)C(=O)N[C@@H](Cc1ccccc1)C(=O)N[C@@H](CC(C)C)C(=O)[C@@]1(C)CO1 | 18.3 nM | 1370 nM | 23.5 nM | 153 nM | 56.6 |  | < 10 nM | 17.3 nM | < 10 nM |  | 14.4 nM | 54.3 nM | < 13.6 nM | 43.4 nM | 83 nM | 1600 nM | < 13.3 nM | 36.7 nM | < 16.5 nM | 172 nM
C[C@]12O[C@H](C[C@]1(O)CO)n1c3ccccc3c3c4c(c5c6ccccc6n2c5c31)CNC4=O | 88.1 nM and 110 nM | > 10000 nM and 10200 nM | 110 nM and 120 nM | 1630 nM and 1780 nM | 1560 | > 9150 nM | 44 nM and 37.1 nM | 3970 nM and 2010 nM | 50 nM and 58.9 nM | > 10000 nM and 7840 nM | 19.6 nM and < 11.7 nM | 3730 nM and 1780 nM | 398 nM and 86.9 nM | 2060 nM and 1840 nM | 60.5 nM and 59.8 nM | 5910 nM and 9520 nM | 114 nM and 84.6 nM | 889 nM and 540 nM | 91.6 nM and 129 nM | 500 nM and 870 nM
C(=N\Nc1nnc2c(n1)[nH]c1ccccc12)/c1cccnc1 |  | > 100000 nM |  | > 100000 nM |  | > 100000 nM |  | > 100000 nM |  | > 100000 nM |  | > 100000 nM |  | > 100000 nM |  | > 100000 nM |  | > 100000 nM |  | > 100000 nM
COc1ccc(C(=O)c2cc(OC)c(OC)c(OC)c2)cc1OC(C)=O | 32.4 nM | > 100000 nM | 37.9 nM | > 100000 nM | 2240 | > 100000 nM | < 10 nM | 10.2 nM | < 18.4 nM | > 100000 nM | 84.8 nM | > 100000 nM | 32.5 nM | 311 nM | < 13.6 nM | > 100000 nM | < 10 nM | 37.6 nM | 786 nM | 10100 nM
Cn1nc(C(F)(F)F)c(-c2ccc(Cl)c(C(F)(F)F)c2)c1-c1ccc(OCc2ccc(Cl)cc2)cc1O | 2030 nM | 7470 nM | 1710 nM | 5640 nM | 1730 | 7730 nM | 1630 nM | 6270 nM | 1840 nM | 7280 nM | 1410 nM | 4520 nM | 1020 nM | 2230 nM | 1600 nM | 6000 nM | 1650 nM | 5950 nM | 1410 nM | 4450 nM
O=C1c2ccccc2C(=O)c2c(NCCCNCCO)ccc(NCCCNCCO)c21 |  | 35800 nM |  | 15500 nM |  | 26300 nM |  | 25700 nM |  | 17600 nM |  | 17700 nM |  | 28700 nM |  | 29800 nM |  | 15300 nM |  | 18900 nM
CCSc1oc(-c2ccccc2)nc1[P+](c1ccccc1)(c1ccccc1)c1ccccc1 | 314 nM | 2630 nM | 298 nM | 1080 nM | 289 | 1840 nM | 308 nM | 1120 nM | 305 nM | 7320 nM | 276 nM | 866 nM | 164 nM | 315 nM | 622 nM | 4660 nM | 376 nM | 2850 nM | 186 nM | 420 nM
